# Where two headings read alike, the source gives them in different places.
# Experiments:
# SARS-CoV-2 = settings: Vero E6 cells; cited from earlier work
# SARS-CoV-2 Mpro = SARS-CoV-2 Mpro (Severe acute respiratory syndrome coronavirus 2, UniProt P0DTD1); type: biochemical
# [1] = target: His-tagged SARS-CoV-2 Mpro (Severe acute respiratory syndrome coronavirus 2, UniProt P0DTD1); experiment: Mpro inhibition in the presence of mammalian cell lysates; type: biochemical; settings: 50 µM substrate, 10 min, 37 °C
# human cathepsin L = human cathepsin L (Homo sapiens, UniProt P07711); experiment: Inhibition of human cathepsin L; type: biochemical; settings: in words
# human cathepsin B = human cathepsin B (Homo sapiens, UniProt P07858); experiment: Inhibition of human cathepsin B; type: biochemical; settings: in words
# [2] = Table 2, azapeptide nitriles, 50 µM substrate, pH 7.2, 37 °C, 60 min
# [3] = Table 3, 5-halopyridin-3-yl esters, kinetic analysis as Table 2
# Sequence of human cathepsin L (P07711 114-333): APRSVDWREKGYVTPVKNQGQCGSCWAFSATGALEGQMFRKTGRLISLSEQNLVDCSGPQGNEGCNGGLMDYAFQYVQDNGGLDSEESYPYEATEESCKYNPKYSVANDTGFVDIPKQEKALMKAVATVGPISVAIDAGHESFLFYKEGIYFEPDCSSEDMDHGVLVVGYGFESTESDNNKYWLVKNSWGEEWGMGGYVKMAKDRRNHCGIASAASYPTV
SMILES,k inac/K i (SARS-CoV-2 Mpro; [2]),Mpro inhibition in HEK and A549 cell lysates ([1]; inhibitor 1 μM),k inac/K i (SARS-CoV-2 Mpro; [3]),also measured
O=C(Oc1cncc(Cl)c1)c1cccc2c1CCN2 [5‐chloropyridin‐3‐yl dihydroindole‐4‐carboxylate],–,–,–,activity against infectivity and replication of SARS-CoV-2 (SARS-CoV-2): active
CC(C)C[C@H](NC(=O)OCc1ccccc1)C(=O)N(C)N(C#N)CCC(N)=O [Compound 3],489 M⁻¹ s⁻¹,–,–,–
CN(C(=O)[C@H](Cc1ccccc1)NC(=O)OCc1ccccc1)N(C#N)CCC(N)=O [Compound 4],1150 M⁻¹ s⁻¹,–,–,Mpro inhibition in HEK and A549 cell lysates ([1]; inhibitor 10 μM): virtually complete inhibition
CC(C)C[C@H](NC(=O)[C@@H](NC(=O)OCc1ccccc1)C(C)(C)C)C(=O)N(C)N(C#N)CCC(N)=O [Compound 5],2060 M⁻¹ s⁻¹,–,–,–
CN(C(=O)[C@H](Cc1ccccc1)NC(=O)[C@@H](NC(=O)OCc1ccccc1)C(C)(C)C)N(C#N)CCC(N)=O [Compound 6],36 000 M^−1 s^−1,virtually complete inhibition,–,–
CC[C@H](NC(=O)OCc1ccccc1)C(=O)N[C@H](C(=O)N[C@@H](CC(C)C)C(=O)N(C)N(C#N)CCC(N)=O)C(C)(C)C [Compound 7],21 400 M^−1 s^−1,–,–,–
CC[C@H](NC(=O)OCc1ccccc1)C(=O)N[C@H](C(=O)N[C@@H](Cc1ccccc1)C(=O)N(C)N(C#N)CCC(N)=O)C(C)(C)C [Compound 8],–,virtually complete inhibition,–,–
O=C(Oc1cncc(Cl)c1)c1cc2cc(Cl)ccc2[nH]1 [Compound 17],–,virtually complete inhibition,29 100 M^−1 s^−1,cathepsin L inhibition (human cathepsin L): did not inhibit; cathepsin B inhibition (human cathepsin B): did not inhibit
O=C(Oc1cncc(Br)c1)c1cccc2[nH]ccc12 [Compound 18],–,–,24 000 M^−1 s^−1,–
O=C(Oc1cncc(Cl)c1)c1ccc2[nH]c3c(c2c1)CCCC3 [Compound 19],–,–,5620 M⁻¹ s⁻¹,–
